A short description of series [1]: Octanol/water partition coefficient, PBS (pH 7.4)/n-octanol. Type of series: physicochemical. As to conditions: phosphate-buffered saline (pH 7.4)/n-octanol, n=3. How it is done: Octanol/water partition coefficients were determined as follows. Approximately 10 kBq of ^18F-compounds in 50 μL PBS were diluted in 450 μL of PBS (pH 7.4) and added to 500 μL of n-octanol in an Eppendorf tube (n=3). After vortexing for 3 minutes, the tubes were centrifuged (10,300 rpm for 6 minutes) and 100 μL aliquots of the PBS and n-octanol phases were carefully transferred to separate tubes. The radioactivity of the samples was counted in a γ-counter.
Log P values were measured in a phosphate-buffered saline (pH 7.4)/n-octanol system.

Series [2] can be described thus: Stability in rat serum at 37° C., radio-HPLC. Particulars: for % Intact 18F-compound, Serum 1 h / % Intact 18F-compound, Serum 2 h: 37° C. It is filed as in vitro ADME. How it is done: (§1) During the development of embodiments of the technology provided herein, a competitive binding assay was used to measure the binding affinity to rat GnRH receptor of the two nonradioactive reference ^19F-compounds described above. Radiolabeling was performed from [^18F]fluoride using the corresponding mesylate and chloro-precursors using K[^18F]/K222 complex in DMSO. Log P values and serum stability were investigated and their brain uptake was studied by small animal PET imaging in healthy rats.
(§2) Serum and in vivo stability measurements were performed as follows. Approximately 5 MBq of ^18F compounds (e.g., peptides or small molecules) in PBS (50 μL) was added to freshly collected rat serum (0.4 mL) and samples were incubated at 37° C. in Eppendorf tubes. After 1 hour and 2 hours, ice-cold ethanol (400 μL) was added and the mixtures were centrifuged at 13,400 rpm for 10 minutes. The resulting supernatants were diluted with Solvent A and analyzed by radio-HPLC.
(§3) Also, the stabilities of the compounds were measured in rat serum and in vivo in rat blood and urine (Table 2). Table 2 provides the fraction (as a percentage of the initial amount) of compound remaining in serum, blood, or urine as a function of time (e.g., after 1 and 2 hours).

The nature of series [3]: In vivo stability in rat blood and urine. Particulars: for % Intact 18F-compound, Blood 1 h: rat blood; for % Intact 18F-compound, Urine 1 h: rat urine. The procedure: as §2, §3
Series [4] deals with T1, human type I GnRH receptor (Homo sapiens, UniProt P30968).
T1 construct: purchased Merck Millipore
T1 sequence (P30968 1-328): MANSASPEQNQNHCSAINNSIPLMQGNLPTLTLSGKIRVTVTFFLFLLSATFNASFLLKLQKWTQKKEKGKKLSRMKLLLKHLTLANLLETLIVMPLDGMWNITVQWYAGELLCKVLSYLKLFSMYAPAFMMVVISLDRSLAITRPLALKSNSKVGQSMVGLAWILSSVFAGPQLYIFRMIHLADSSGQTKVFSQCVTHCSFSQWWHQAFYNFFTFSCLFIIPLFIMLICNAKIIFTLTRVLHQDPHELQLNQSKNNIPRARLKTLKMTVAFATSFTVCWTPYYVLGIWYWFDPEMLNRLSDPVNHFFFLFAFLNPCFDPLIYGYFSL
Description: Radioligand binding, cell membranes expressing human type I GnRH receptor, [125I]Triptorelin. Particulars: Ki ± SD, n=3; competition with [125I]Triptorelin; read-out: Receptor affinity Ki for the human GnRH receptor. The procedure: Radioligand binding studies were performed with 0.18-0.32 nM [^125I]LHRH-[D-Trp^6]
Further, binding curves for of compounds SB-001-RS, SB-002-RS, SB-003-RS, and SB-004-RS for the human GnRH receptor in competition for [^125I]Triptorelin were measured (n=3) (FIG. 3).

Series [5] addresses T2, rat GnRH receptor (Rattus norvegicus, UniProt P30969).
T2 construct: expressed in transfected cells; host or cells: HEK 293 cells (transient transfection, membranes prepared 48 h later)
T2 sequence (P30969 1-327): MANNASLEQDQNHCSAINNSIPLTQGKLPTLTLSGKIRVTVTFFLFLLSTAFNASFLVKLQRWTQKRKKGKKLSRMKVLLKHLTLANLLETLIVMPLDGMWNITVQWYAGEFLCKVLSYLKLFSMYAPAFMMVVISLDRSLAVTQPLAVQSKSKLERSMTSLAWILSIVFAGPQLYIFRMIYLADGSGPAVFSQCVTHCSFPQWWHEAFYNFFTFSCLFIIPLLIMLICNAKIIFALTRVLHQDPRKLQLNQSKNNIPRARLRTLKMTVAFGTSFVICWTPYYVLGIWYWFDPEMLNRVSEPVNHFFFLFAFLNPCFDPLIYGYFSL
Briefly: Radioligand binding, membranes of HEK 293 cells expressing rat GnRH receptor, [125I] LH-RH Dtrp6. The procedure:
(§4) PSA was calculated using ChemBioDraw Ultra 12.0; Clog D was experimentally determined; Ki was determined by an in vitro assay in HEK 293 cells expressing rat GnRH receptor (see below); the radiochemical yield with respect to isotope decay was corrected based on the start of synthesis, and radiochemical purity was analyzed by Radio-HPLC.
For the membrane preparation and radioligand binding assays, HEK 293 cells were grown in Dulbecco's modified Eagle's medium with 10% fetal bovine serum, penicillin (100 U/ml), and streptomycin (100 μg/ml), and transiently transfected with rat GnRH receptor using LipofectAMINE 2000 (Invitrogen) according to the manufacturer's protocol. 48 hours later, membranes were prepared and radioligand binding was performed as previously described (see, e.g., Krobert et al (2001) “The cloned human 5-HT7 receptor splice variants: a comparative characterization of their pharmacology, function and distribution” Naunyn Schmiedebergs Arch Pharmacol 363(6): 620-32). Radioligand binding studies were performed with 0.18-0.32 nM [^125I] […]
In Table 1, PSA was calculated using ChemBioDraw Ultra 12.0; Clog D was experimentally determined; Ki was determined by an in vitro assay in HEK 293 cells expressing rat GnRH receptor; the radiochemical yield with respect to isotope decay was corrected to the start of synthesis, and radiochemical purity was analyzed by Radio HPLC. […]

Series [6] can be described thus: Log D / Log P of pilot compounds, experimentally determined. Type of series: physicochemical. As to conditions: for logP: n-octanol / phosphate-buffered saline, pilot 18F compounds. How it is done:
as §4
In Table 1, PSA was calculated using ChemBioDraw Ultra 12.0; Clog D was experimentally determined; Ki was determined by an in vitro assay in HEK 293 cells expressing rat GnRH receptor; the radiochemical yield with respect to isotope decay was corrected to the start of synthesis, and radiochemical purity was analyzed by Radio HPLC.
as §1

Series [7] can be described thus: Brain uptake by small animal PET imaging in healthy rats. It is filed as in vivo, rat. As to conditions: for Brain uptake (in words): healthy rats.
Description: In particular, PET images (e.g., 90-minute summed PET images) of the brain of a Sprague-Dawley rat injected with an [^18F] compound according to an embodiment of the technology show accumulation of the compound in the central regions of the brain.
as §1

We go through ten molecules from US20160058895A1, “RADIOLABELED GNRH ANTAGONISTS AS PET IMAGING AGENTS” (OSLO UNIVERSITETSSYKEHUS HF, priority 2013, published 2016).

“Also recorded” adds a separate entry of the source.

On to `COc1cc(NCCCF)cc(OC)c1NC(=O)c1ccc(Oc2cc3c(cc2C)CCC3(C)C)o1` [[^18F]SB-002-RS, N-(4-((3-fluoropropyl)amino)-2,6-dimethoxyphenyl)-5-((3,3,6-trimethyl-2,3-dihydro-1H-inden-5-yl)oxy)furan-2-carboxamide], for which the logP in series [1] turned out to be 1.49. In series [2] (rat serum), the “% Intact 18F-compound, Serum 1 h” value came to 99.1% and the “% Intact 18F-compound, Serum 2 h” value came to 97.5%. Also, in series [3], the “% Intact 18F-compound, Blood 1 h” value was 97% and the “% Intact 18F-compound, Urine 1 h” value is 99%.
As for `COc1cc(OCCF)cc(OC)c1NC(=O)c1ccc(Cc2cc3c(cc2C)CCCC3(C)C)o1` [[^18F]SB-003-RS, N-(4-(2-fluoroethoxy)-2,6-dimethoxyphenyl)-5-((3,8,8-trimethyl-5,6,7,8-tetrahydronaphthalen-2-yl)methyl)furan-2-carboxamide], the logP in series [1] was determined as 1.68. For the same molecule, in series [2] (rat serum), the “% Intact 18F-compound, Serum 1 h” value is on record as above 95% and the “% Intact 18F-compound, Serum 2 h” value is listed as 91.1%. Besides, in series [3], the “% Intact 18F-compound, Blood 1 h” value is on record as 88.1% and the “% Intact 18F-compound, Urine 1 h” value came out at 18.5%.
Take `COc1cc(NCCCF)cc(OC)c1NC(=O)c1ccc(Cc2cc3c(cc2C)CCCC3(C)C)o1` [SB-001-RS, N-(4-((3-fluoropropyl)amino)-2,6-dimethoxyphenyl)-5-((3,8,8-trimethyl-5,6,7,8-tetrahydronaphthalen-2-yl)methyl)furan-2-carboxamide]: the inhibitory constant (Ki) in series [4] worked out at 3.7 ± 2.3 nM.
In series [5], `COc1nc(OCC[18F])nc(OC)c1NC(=O)c1ccc(Oc2cc3c(cc2C)CCC3(C)C)o1` [[^18F]SB7-65-18] displayed a Ki of 1.36 nM. Besides, the logP in series [6] (pH 7.4) came to 1.3. Further, the logD in series [6] (pH 7.4, experimentally determined, read-out: CLog D (pH 7.4)) was found to be 1.22. Moreover, the “Stability in rat serum” value in series [2] (rat serum, over 2 hours) is “stable”. In series [7], the “Brain uptake (in words)” value is listed as “failed to show significant brain uptake”.
Turning to `COc1nc([18F])nc(OC)c1NC(=O)c1ccc(Oc2cc3c(cc2C)CCC3(C)C)o1` [[^18F]SB7-65-19], in series [5], the affinity, expressed as Ki, was 42 nM. The “CLog D (pH 7.4)” value in series [6] (experimentally determined) came to 1.33. The logP in series [6] (pH 7.4) is 1.4. In series [2] (rat, serum, hydrolysis of the amide bond, read-out: Serum stability t1/2), the half-life at 11.1 MBq/mL is below 30 min. For the same molecule, the “Brain uptake (in words)” value in series [7] is “entered the brain and was clearly visibly by PET; also recorded: significant brain uptake”. In addition, in series [7] (rat, at 10 minutes), the “Brain (CNS) uptake” value is reported as 0.4 % ID/g.
As for `COc1cc(OCCF)cc(OC)c1NC(=O)c1ccc(Cc2cc3c(cc2C)CCCC3(C)C)o1` [SB-003-RS, N-(4-(2-fluoroethoxy)-2,6-dimethoxyphenyl)-5-((3,8,8-trimethyl-5,6,7,8-tetrahydronaphthalen-2-yl)methyl)furan-2-carboxamide], the Ki in series [4] stood at 0.6 ± 0.4 nM.
Turning to `COc1cc(NCCCF)cc(OC)c1NC(=O)c1ccc(Cc2cc3c(cc2C)CCCC3(C)C)o1` [[^18F]SB-001-RS, N-(4-((3-fluoropropyl)amino)-2,6-dimethoxyphenyl)-5-((3,8,8-trimethyl-5,6,7,8-tetrahydronaphthalen-2-yl)methyl)furan-2-carboxamide], the lipophilicity (logP) in series [1] turned out to be 1.43. Also, in series [2] (rat serum), the “% Intact 18F-compound, Serum 1 h” value is listed as above 95% and the “% Intact 18F-compound, Serum 2 h” value is listed as 88.5%. In addition, in series [3], the “% Intact 18F-compound, Blood 1 h” value is recorded as 81% and the “% Intact 18F-compound, Urine 1 h” value was determined as 94.5%.
`COc1cc(OCCF)cc(OC)c1NC(=O)c1ccc(Oc2cc3c(cc2C)CCC3(C)C)o1` [SB-004-RS, N-(4-(2-fluoroethoxy)-2,6-dimethoxyphenyl)-5-((3,3,6-trimethyl-2,3-dihydro-1H-inden-5-yl)oxy)furan-2-carboxamide]: the inhibitory constant (Ki) in series [4] was found to be 2.1 ± 2.1 nM.
Consider `COc1cc(NCCCF)cc(OC)c1NC(=O)c1ccc(Oc2cc3c(cc2C)CCC3(C)C)o1` [SB-002-RS, N-(4-((3-fluoropropyl)amino)-2,6-dimethoxyphenyl)-5-((3,3,6-trimethyl-2,3-dihydro-1H-inden-5-yl)oxy)furan-2-carboxamide], for which the Ki in series [4] stood at 1.5 ± 3.9 nM.
`COc1cc(OCCF)cc(OC)c1NC(=O)c1ccc(Oc2cc3c(cc2C)CCC3(C)C)o1` [[^18F]SB-004-RS, N-(4-(2-fluoroethoxy)-2,6-dimethoxyphenyl)-5-((3,3,6-trimethyl-2,3-dihydro-1H-inden-5-yl)oxy)furan-2-carboxamide]: the logP in series [1] was found to be 1.82. Also, in series [2] (rat serum), the “% Intact 18F-compound, Serum 1 h” value is listed as above 95% and the “% Intact 18F-compound, Serum 2 h” value is 97.3%. Also, in series [3], the “% Intact 18F-compound, Blood 1 h” value stood at 97.5% and the “% Intact 18F-compound, Urine 1 h” value is recorded as 99%.
